One experiment has as its target T1, CtNcs2 (Thermochaetoides thermophila, UniProt G0SFJ9).
T1 construct: gene NCS2; codon-optimized, E. coli BL21(DE3) pRARE, pETM30 N-terminal 6xHis-GST tag (TEV-cleavable, optionally cleaved), GSTrap, heparin, size exclusion
T1 sequence (G0SFJ9 1-406): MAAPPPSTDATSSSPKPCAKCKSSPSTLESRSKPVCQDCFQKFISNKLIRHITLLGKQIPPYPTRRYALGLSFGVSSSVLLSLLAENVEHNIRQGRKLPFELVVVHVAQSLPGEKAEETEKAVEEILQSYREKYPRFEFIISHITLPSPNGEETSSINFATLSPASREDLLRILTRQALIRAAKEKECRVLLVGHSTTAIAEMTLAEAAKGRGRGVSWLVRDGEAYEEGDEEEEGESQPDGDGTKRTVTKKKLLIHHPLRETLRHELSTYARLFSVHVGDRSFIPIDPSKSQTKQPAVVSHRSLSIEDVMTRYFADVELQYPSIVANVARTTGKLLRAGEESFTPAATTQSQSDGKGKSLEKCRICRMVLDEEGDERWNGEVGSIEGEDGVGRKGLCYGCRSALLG
Briefly: thermal shift assay (SYPRO Orange). The class given is binding. To be noted: 2 mM MgCl2, 20 mM Tris pH 8, 150 mM NaCl, 1 mM DTT.

Experiment [1] addresses Ncs6 (Needs-Cla4-to-Survive 6), S. cerevisiae (S. cerevisiae, UniProt P53088 1-359). Briefly: two-hybrid. To be noted: partners not purified.

Ncs6 (Needs-Cla4-to-Survive 6), S. cerevisiae, sequence (P53088 whole entry): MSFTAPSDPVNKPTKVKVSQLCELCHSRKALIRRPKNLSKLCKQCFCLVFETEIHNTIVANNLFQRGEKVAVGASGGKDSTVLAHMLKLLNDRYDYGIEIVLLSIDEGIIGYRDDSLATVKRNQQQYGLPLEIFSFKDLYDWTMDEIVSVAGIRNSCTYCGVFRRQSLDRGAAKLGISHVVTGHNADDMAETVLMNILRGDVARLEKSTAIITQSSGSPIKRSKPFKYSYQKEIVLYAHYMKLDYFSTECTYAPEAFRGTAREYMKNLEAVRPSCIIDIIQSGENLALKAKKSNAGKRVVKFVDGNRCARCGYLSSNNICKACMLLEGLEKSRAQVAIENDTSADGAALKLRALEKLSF

Regarding `Nc1ncnc2c1ncn2[C@@H]1O[C@H](COP(=O)(O)OP(=O)(O)O)[C@@H](O)[C@H]1O` [ADP], the melting temperature result on CtNcs2 (1 mM ADP) is “stability of Ncs2 increases significantly, when it is bound to ATP, ADP or the non-hydrolysable AMP-PNP”.
Regarding `Nc1ncnc2c1ncn2[C@@H]1O[C@H](COP(=O)(O)OP(=O)(O)OP(=O)(O)O)[C@@H](O)[C@H]1O` [ATP], on CtNcs2 (1 mM ATP), the melting temperature result was “stability of Ncs2 increases significantly, when it is bound to ATP, ADP or the non-hydrolysable AMP-PNP”.
For the molecule `Nc1ncnc2c1ncn2[C@@H]1O[C@H](COP(=O)(O)OP(=O)(O)NP(=O)(O)O)[C@@H](O)[C@H]1O` [AMP-PNP], the melting temperature result at CtNcs2 (1 mM AMP-PNP) is on record as “stability of Ncs2 increases significantly, when it is bound to ATP, ADP or the non-hydrolysable AMP-PNP”.

B1: Ncs2* (Ncs2 H71L), S. cerevisiae (natural protein)
chain: MECQRCPASARNPATVESRKEKFCDECFIKFVSTKQRKQMMKDEYFRNLFKVIYPFEKEGSVSKILLPLSLSDSGSLVMLDIVHDLLLEQTKQHNNRTGFTVDVLTVFTEENVSVIKERMESLINEKMSQLNKISNIFNVHFIDVNEFFNNASEVSTFIIDNENFEIFSKSKSVDDSNILTLKEILGKYCLNNSSRSDLISIIKTQLIKHFAYENGYNAIMWGHSMTKLSEVIISLVVKGKGSQIATFLDSESFDTLNNKPCKYKNLYPMKDLLSVEIESFLQIRNLAQFLINVEETNVKPNCLIARKSLPSLGQQKLVKNMTINEITNKYFQDIQNDYSNIISTVLRTADKLTQPKSSMAKPSQCQICQSKIYTNPSNWLNRITVTSPYPVETTEEKYLFKQWQDSKLGQSHTHYVELLNEIKQGASNSLDVEDGDVKLCYGCLILLNTSIKDKNLVWPKVDTMDITANATNKNKELSQILDQFEINSDGEE
Turning to B1, the “Miller units (beta-galactosidase, two-hybrid)” value (shortened to “Miller units”) in experiment [1] was found to be 252 MU.

B2: Ncs2^H71A, S. cerevisiae (natural protein)
chain: MECQRCPASARNPATVESRKEKFCDECFIKFVSTKQRKQMMKDEYFRNLFKVIYPFEKEGSVSKILLPLSASDSGSLVMLDIVHDLLLEQTKQHNNRTGFTVDVLTVFTEENVSVIKERMESLINEKMSQLNKISNIFNVHFIDVNEFFNNASEVSTFIIDNENFEIFSKSKSVDDSNILTLKEILGKYCLNNSSRSDLISIIKTQLIKHFAYENGYNAIMWGHSMTKLSEVIISLVVKGKGSQIATFLDSESFDTLNNKPCKYKNLYPMKDLLSVEIESFLQIRNLAQFLINVEETNVKPNCLIARKSLPSLGQQKLVKNMTINEITNKYFQDIQNDYSNIISTVLRTADKLTQPKSSMAKPSQCQICQSKIYTNPSNWLNRITVTSPYPVETTEEKYLFKQWQDSKLGQSHTHYVELLNEIKQGASNSLDVEDGDVKLCYGCLILLNTSIKDKNLVWPKVDTMDITANATNKNKELSQILDQFEINSDGEE
Turning to B2, the “Miller units” value in experiment [1] turned out to be 130 MU.

B3: Ncs2^H71I, S. cerevisiae (natural protein)
chain: MECQRCPASARNPATVESRKEKFCDECFIKFVSTKQRKQMMKDEYFRNLFKVIYPFEKEGSVSKILLPLSISDSGSLVMLDIVHDLLLEQTKQHNNRTGFTVDVLTVFTEENVSVIKERMESLINEKMSQLNKISNIFNVHFIDVNEFFNNASEVSTFIIDNENFEIFSKSKSVDDSNILTLKEILGKYCLNNSSRSDLISIIKTQLIKHFAYENGYNAIMWGHSMTKLSEVIISLVVKGKGSQIATFLDSESFDTLNNKPCKYKNLYPMKDLLSVEIESFLQIRNLAQFLINVEETNVKPNCLIARKSLPSLGQQKLVKNMTINEITNKYFQDIQNDYSNIISTVLRTADKLTQPKSSMAKPSQCQICQSKIYTNPSNWLNRITVTSPYPVETTEEKYLFKQWQDSKLGQSHTHYVELLNEIKQGASNSLDVEDGDVKLCYGCLILLNTSIKDKNLVWPKVDTMDITANATNKNKELSQILDQFEINSDGEE
As for B3, the “Miller units” value in experiment [1] came out at 109 MU.

The values above are taken from article PMC10450187, “Ncs2* mediates in vivo virulence of pathogenic yeast through sulphur modification of cytoplasmic transfer RNA” (Nucleic Acids Research, 2023).
